According to US20180214393A1, “METHODS FOR TREATING CANCER” (RADIUS PHARMACEUTICALS, INC., priority 2015, published 2018):
Counter-ions that a name gives are not always drawn. Like-named read-outs stand apart in the source and are kept apart here.

Tests used:
[1] = system: MCF-7 xenograft; experiment: MCF-7 xenograft model tumor growth; type: in vivo, Balb/C-Nude mice; details: RAD1901 alone at 30 mg/kg
Method: All mice were housed in pathogen-free housing in individually ventilated cages with sterilized and dust-free bedding cobs, access to sterilized food and water ad libitum, under a light dark cycle (12-14 hour circadian cycle of artificial light) and controlled room temperature and humidity. Tumors were measured twice weekly with Vernier calipers and volumes were calculated using the formula: (L*W^2)*0.52. Two days before cell implantation, Balb/C-Nude mice were inoculated with […] release 17β-estradiol pellets. […] The treatment period lasted for 28 days. […] Tumor size was measured at various time points for 27 days.

[2] = system: MCF-7 xenograft; experiment: Proliferation marker Ki67 in MCF-7 xenograft tumors; type: in vivo, mice; details: 90 mg/kg, 8 hours after single dose and 24 hours after 4th dose
[3] = system: uterine tissue; experiment: Uterotropic assay in mice; type: in vivo; details: RAD1901 0.03 to 100 mg/kg
Method: Twenty-four hours after the final dose, all animals were euthanized by carbon dioxide inhalation. Body weights and wet uterine weights were recorded for each animal.

[4] = system: PDx-4 models; experiment: Proliferation marker Ki67 in PDx-4 tumors; type: in vivo, mice; details: 30, 60 or 120 mg/kg p.o. q.d., four hours after final dose of 56 day study, vs fulvestrant 1 mg/animal qwk
[5] = system: MCF-7 cell lines; experiment: ER degradation and ER signaling (PGR, GREB1, TFF1) in MCF-7 cell lines
[6] = system: T47D cell lines; experiment: ER degradation and ER signaling (PGR, GREB1, TFF1) in T47D cell lines; type: cell-based, human
Method: (§1) Cells were harvested and protein expression was analyzed using standard practice. Tumors were harvested at the indicated time points after the last day of dosing, homogenized in RIPA buffer with protease and phosphatase inhibitors using a Tissuelyser (Qiagen). Equal amounts of protein were separated by MW, transferred to nitrocellulose membranes and blotted with the following antibodies using standard practice: • Estrogen receptor (Santa Cruz (HC-20); sc-543) • Progesterone receptor (Cell Signaling Technologies; 3153) • Vinculin (Sigma-Aldrich, v9131)
qPCR analyses were performed as follows: Cells were harvested, mRNA was extracted, and equal amounts used for cDNA synthesis and qPCR with primers specific for progesterone receptor, GREB1, and TFF1 (LifeTech). Bands were quantified using 1D Quant software (GE).
Three ER target genes, progesterone receptor (PgR), growth regulation by estrogen in breast cancer 1 (GREB1) and trefoil factor 1 (TFF 1), were used as markers.

[7] = Phase 1 dose escalation study in healthy postmenopausal women, plasma pharmacokinetics; type: in vivo, human; details: for AUC / Cmax / half-life / Tmax: female, human, plasma, oral; for AUC: read-out: AUC0-tau Geo-Mean; for Cmax: read-out: Cmax Geo-Mean
Method: The subjects were treated with placebo or at least one oral dose daily after a light breakfast for 7 days at dose levels of 200 mg, 500 mg, 750 mg and 1000 mg, respectively.
A series of blood samples were taken during the study for the analysis of RAD1901 in plasma. Blood samples of 5 mL each were taken via an indwelling IV catheter or by direct venipuncture into tubes containing K3-EDTA as anticoagulant. Steady state was achieved by day 5 of treatment. […] The median tv2 was between 37.5-42.3 hours (Table 8).

[8] = system: ER and PR expression in MCF-7 xenograft; experiment: Western blot of ER and PR expression in MCF-7 xenograft tumors; type: in vivo, mice
Method: as §1, with “v9131) Two days before cell implantation, Balb/C-Nude mice were inoculated with […] release 17β-estradiol pellets. […] The treatment period lasted for 28 days.” for “v9131)”

[9] = system: MCF-7 intracranial tumor; experiment: MCF-7 intracranial tumor xenograft model, survival; type: in vivo, athymic nude mice; details: RAD1901 120 mg/kg daily vs fulvestrant 0.5 mg/animal daily, P<0.0001
Method: Female athymic nude mice (Crl:NU(NCr)-Foxnlmu) were used for tumor xenograft studies. Three days prior to tumor cell implantation, estrogen pellets (0.36 mg E2, 60-day release, Innovative Research of America, Sarasota, Fla.) were implanted subcutaneously between the scapulae of all test animals using a sterilized trochar. MCF-7 human breast adenocarcinoma cells were cultured to mid-log phase in RPMI-1640 medium containing 10% fetal bovine serum, 100 units/mL penicillin G, 100 μg/mL streptomycin sulfate, 2 mM glutamine, 10 mM HEPES, 0.075% sodium bicarbonate and 25 µg/mL gentamicin. On the day of tumor cell implant, the cells were trypsinized, pelleted, and resuspended in phosphate buffered saline at a concentration of […] cells/mL. Each test mouse received 1×10^6 MCF-7 cells implanted intracranially.
The endpoint was defined as a mortality or 3× survival of the control group, whichever comes first. Treatment tolerability was assessed by body weight measurements and frequent observation for clinical signs of treatment-related adverse effects. Animals with weight loss exceeding 30% for one measurement, or exceeding 25% for three measurements, were humanely euthanized and classified as a treatment-related death. Acceptable toxicity was defined as a group-mean body weight loss of less than 20% during the study and not more than one treatment-related death among ten treated animals, or 10%. […]

[10] = system: ovariectomized rats; experiment: BMD in ovariectomized rats (dual emission x-ray absorptiometry); type: in vivo, Sprague-Dawley rats; details: E2 0.01 mg/kg; RAD1901 0.1-3 mg/kg, once daily 4 weeks
Method: As a model of postmenopausal bone loss, ovariectomy was performed on anesthetized adult female Sprague-Dawley rats, with sham surgery as a control. […] Animals in the sham surgery group were vehicle treated. All animals were euthanized by carbon dioxide inhalation 24 hours after the final dose. Bone mineral density was assessed at baseline and again after 4 weeks of treatment using PIXImus dual emission x-ray absorptiometry.

With CCNCCc1ccc(CN(CC)c2cc(OC)ccc2[C@@H]2CCc3cc(O)ccc3C2)cc1 [RAD1901, (6R)-6-(2-(N-(4-(2-(ethylamino)ethyl)benzyl)-N-ethylamino)-4-methoxyphenyl)-5,6,7,8-tetrahydronaphthalen-2-ol dihydrochloride] the tumor growth inhibition [1] was “not as effective as RAD1901 alone at 60 mg/kg”, the “proliferation marker Ki67” value [2] was “rapid decrease of the proliferation marker Ki67” and the “uterine wet weight or epithelial thickness” value [3] was “had no effect on uterine wet weight or epithelial thickness”. The “proliferation marker Ki67” value [4] was “rapid decrease of the proliferation marker Ki67”, the ER degradation ([5]; 0.001-1 μM) was “nearly complete ER degradation” and the “ER signaling (PgR, GREB1, TFF1)” value ([5]; same concentrations) was “inhibited ER signaling”. The “ER signaling (PgR, GREB1, TFF1)” value [6] was “inhibited ER signaling”, the ER degradation ([6]; 0.001-1 μM) was “nearly complete ER degradation” and the steady state achieved ([7]; daily oral dosing) was at most 5 days. For the same molecule, the “plasma exposure vs dose” value ([7]; dose range tested 200-1000 mg) was “increased more than dose proportionally”, the AUC ([7]; 200 mg, Day 7) was 670 ng·h/mL and the Cmax ([7]; 200 mg, Day 7) was 49.8 ng/mL. The half-life ([7]; 200 mg, Day 7, read-out: t1/2 Geo-Mean (converted)) was 2300 min, the Tmax ([7]; 200 mg, Day 7, read-out: tmax Median) was 3 h and the AUC ([7]; 500 mg, Day 7) was 2930 ng·h/mL. It also gave a Cmax ([7]; 500 mg, Day 7) of 197 ng/mL, a half-life ([7]; 500 mg, Day 7, read-out: t1/2 Geo-Mean (converted)) of 2250 min and a Tmax ([7]; 500 mg, Day 7, read-out: tmax Median) of 4 h. It also gave an AUC ([7]; 750 mg, Day 7) of 4610 ng·h/mL, a Cmax ([7]; 750 mg, Day 7) of 322 ng/mL and a half-life ([7]; 750 mg, Day 7, read-out: t1/2 Geo-Mean (converted)) of 2300 min. It also gave a Tmax ([7]; 750 mg, Day 7, read-out: tmax Median) of 3 h, an AUC ([7]; 1000 mg, Day 7) of 8290 ng·h/mL and a Cmax ([7]; 1000 mg, Day 7) of 540 ng/mL. For the same molecule, the half-life ([7]; 1000 mg, Day 7, read-out: t1/2 Geo-Mean (converted)) was 2540 min, the Tmax ([7]; 1000 mg, Day 7, read-out: tmax Median) was 4 h and the half-life ([7]; 200-1000 mg, Day 7, read-out: median t1/2 across dose groups) was 2250 to 2540 min. The Tmax ([7]; multiple dose administration, read-out: median tmax across dose groups) was 3 to 4 h, the “ER signaling (PR expression)” value ([8]; 4 or 24 hours after the 7th dose, 30, 60 or 90 mg/kg) was “consistent and stable inhibition of ER signaling” and the PR expression ([8]; 8 or 12 hours after single dose, 30, 60 or 90 mg/kg) was “rapidly decreased PR expression”. The “PR, quantification of western blot” value ([8]; 30, 60 or 90 mg/kg p.o. q.d.) was “dose-dependent decrease in PR”, the “ER and PR expression” value ([8]; 2 hours after the final dose, RAD1901 30, 60 mg/kg p.o. q.d., fulvestrant 3 mg/dose s.c. qwk) was “significantly decreased ER and PR expression” and the “PR and ER expression” value ([8]; 8 hours after the final dose) was “reduced PR and ER expression”. For the same molecule, the “Kaplan Meier survival” value [9] was “significantly prolonged survival compared to fulvestrant” and the “ovariectomy-induced bone loss (BMD femur and spine)” value [10] was “dose-dependent and statistically significant suppression of ovariectomy-induced bone loss”.
